According to PubChem BioAssay (NCI):
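Cells were grown in 96-well plates and exposed to each compound for 48 hours at five concentrations; endpoints were interpolated linearly between bracketing concentrations, or set to the highest concentration if not reached. Definition used: TGI = concentration required for complete inhibition of growth.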

What was measured:
Test in all cases: NCI-60 cell line screen, 48 h
[1] = test system: KM12 colon
[2] = test system: NCI/ADR-RES ovarian
[3] = test system: SN12C renal
[4] = test system: MDA-N
[5] = test system: OVCAR-5 ovarian
[6] = test system: MDA-MB-231 breast
[7] = test system: SW-620 colon
[8] = test system: PC-3 prostate
[9] = test system: DU-145 prostate
[10] = test system: A498 renal
[11] = test system: HCT-116 colon
[12] = test system: UACC-257 melanoma

Row | SMILES | TGI [1] [µM] | TGI [2] [µM] | TGI [3] [µM] | TGI [4] [µM] | TGI [5] [µM] | TGI [6] [µM] | TGI [7] [µM] | TGI [8] [µM] | TGI [9] [µM] | TGI [10] [µM] | TGI [11] [µM] | TGI [12] [µM]
1 | CNC(=O)C1CCC(=O)N1CN(C(C)=O)c1ccccc1 (stereo not given) | > 100 | > 100 | > 100 | > 100 | > 100 | > 100 | > 100 | > 100 | > 100 | > 100 | > 100 | > 100
2 | CSC1=N/C(=C\c2ccccc2)C(=O)N1CN1CCOCC1 | > 100 | > 100 | > 100 | > 100 | > 100 | > 100 | > 100 | > 100 | > 100 | > 100 | > 100 | 
3 | O=[N+]([O-])c1ccc(OP(=O)(O)OCC2OC(CP(=O)(O)O)C(O)C2O)cc1 (stereo not given) | > 100 | > 100 | > 100 | > 100 | > 100 | > 100 | > 100 | > 100 | > 100 | > 100 | > 100 | > 100
4 | CCn1c(SCC(=O)NNC(=S)Nc2ccc(Cl)cc2)nc2ccccc2c1=O | > 100 | > 100 | > 100 | > 100 | > 100 | > 100 | > 100 | > 100 | > 100 | 98.3 | > 100 | > 100
5 | O=C1NC(=O)/C(=C/c2ccc(S(=O)(=O)N/N=C/c3ccccc3)cc2)N1 | > 100 | > 100 | > 100 | > 100 | > 100 | > 100 | > 100 | > 100 | > 100 | > 100 | > 100 | > 100
6 | N=c1oc2ccc([N+](=O)[O-])cc2cc1C(=O)Nc1ccccn1 | > 100 | > 100 | > 100 | > 100 | > 100 | 59.9 | > 100 | 43.9 | > 100 | > 100 | > 100 | > 100
7 | COc1ccc(/C=N/NS(=O)(=O)c2ccc(/C=C3\NC(=O)N(C)C3=O)cc2)cc1 | > 100 | > 100 | > 100 | > 100 | > 100 | > 100 | > 100 | > 100 | > 100 | > 100 | > 100 | > 100
8 | CSc1ncc2c(C#N)c3ccccn3c(=O)c2n1 | > 100 | > 100 | > 100 | > 100 | > 100 | > 100 | > 100 | > 100 | > 100 | > 100 | > 100 | > 100
9 | Cc1ccccc1C(=O)NC(O)(C(F)(F)F)C(F)(F)F | > 100 | > 100 | > 100 | > 100 | > 100 | > 100 | > 100 | > 100 | > 100 | > 100 | > 100 | > 100
10 | CC(C)CC(NC=O)C(=O)NC(Cc1ccccc1)NC(=O)CNC(=O)C(C)NC(=O)OC(C)(C)C (stereo not given) | > 100 | > 100 | > 100 | > 100 | > 100 | > 100 | > 100 | > 100 | > 100 | > 100 | > 100 | 
11 | Cc1cc(CN(Cc2ccccc2)Cc2nc3ccccc3[nH]2)c(O)c(CN(Cc2nc3ccccc3[nH]2)Cc2nc3ccccc3[nH]2)c1 | 30.5 | 35.9 | > 100 | 29 | > 100 | > 71.4 | > 100 | 60.6 | > 100 | > 48.6 | 23.1 | 23.1
12 | Nc1nc(NNc2ccccc2F)cc(=O)[nH]1 | > 100 | > 100 | > 100 | > 100 | > 100 | > 100 | > 100 | > 100 | > 100 | > 100 | > 100 | > 100
13 | CN(C)C=NCc1ccc2c(c1)OCO2 | > 100 | > 100 | > 100 | > 100 | > 100 | > 100 | > 100 | > 100 | > 100 | > 100 | > 100 | > 100
14 | CC(=O)N1N=C(c2ccc3ccccc3c2O)CC1c1ccc(Cl)cc1Cl (stereo not given) | > 100 | > 100 | > 100 | > 100 | > 100 | > 100 | > 100 | > 100 | > 100 | > 100 | > 100 | > 100
15 | CCOC(=O)C1=COC(C)(C)CC1=O | > 100 | > 100 | > 100 | > 100 | > 100 | > 100 | > 100 | > 100 | > 100 | > 100 | > 100 | > 100
16 | Clc1cc2nnn(C3CCCCO3)c2cc1Cl (stereo not given) | > 100 | > 100 | > 100 | > 100 | > 100 | > 100 |  | > 100 | > 100 | > 100 | > 100 | > 100
17 | COC(=O)CCN1CCN(CCO)CC1C (stereo not given) | > 10 | > 10 | > 10 | > 10 |  | > 10 | > 10 | > 10 | > 10 | > 10 | > 10 | > 10
